What was measured:
HAP1 MTAP-deleted = assay: SDMA in-cell western assay, HAP1 MTAP-deleted cell line; assay type: cell-based; details: for IC50: Homo sapiens, HAP1 MTAP-deleted cell line; for MTAP Intact/Deleted Ratio: IC50 ratio HAP1 MTAP-intact / HAP1 MTAP-deleted
Procedure, shortened: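 In-cell western for SDMA marks; MTAP-deleted (null) HAP1 background; values given as IC50.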

HAP1 MTAP-intact = assay: SDMA in-cell western assay, HAP1 MTAP-intact cell line; assay type: cell-based; details: Homo sapiens
Procedure, shortened: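 Using an MTAP-isogenic HAP1 cell pair, inhibition of SDMA formation is read by in-cell western and expressed as IC50. MTAP-selectivity is assigned where the ratio between lines reaches 3 fold or greater.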

PRMT5 [1] = target: T1, PRMT5 (Homo sapiens, UniProt O14744); assay: PRMT5 IC50 assay in the presence of SAM as cofactor; assay type: biochemical
T1 construct: purchased Viva (custom protein)
T1 sequence (O14744 whole entry): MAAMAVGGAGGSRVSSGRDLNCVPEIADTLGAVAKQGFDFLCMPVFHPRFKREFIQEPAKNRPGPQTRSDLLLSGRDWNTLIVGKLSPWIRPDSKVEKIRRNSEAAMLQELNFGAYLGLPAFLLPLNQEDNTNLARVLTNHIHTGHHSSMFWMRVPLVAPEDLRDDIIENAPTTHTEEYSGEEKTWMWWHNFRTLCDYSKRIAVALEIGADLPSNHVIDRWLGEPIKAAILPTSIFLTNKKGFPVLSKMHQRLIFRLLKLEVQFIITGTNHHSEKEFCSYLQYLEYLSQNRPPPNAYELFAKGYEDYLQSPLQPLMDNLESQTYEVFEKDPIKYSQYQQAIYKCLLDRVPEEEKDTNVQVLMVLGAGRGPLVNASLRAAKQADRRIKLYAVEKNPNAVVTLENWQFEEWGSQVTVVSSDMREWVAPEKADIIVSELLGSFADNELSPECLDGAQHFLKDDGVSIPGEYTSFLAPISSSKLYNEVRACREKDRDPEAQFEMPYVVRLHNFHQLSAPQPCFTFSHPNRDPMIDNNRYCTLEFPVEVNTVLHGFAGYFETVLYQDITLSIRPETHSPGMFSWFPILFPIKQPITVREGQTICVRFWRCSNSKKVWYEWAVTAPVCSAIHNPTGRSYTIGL
T1 sequence (Q9BQA1 whole entry partner): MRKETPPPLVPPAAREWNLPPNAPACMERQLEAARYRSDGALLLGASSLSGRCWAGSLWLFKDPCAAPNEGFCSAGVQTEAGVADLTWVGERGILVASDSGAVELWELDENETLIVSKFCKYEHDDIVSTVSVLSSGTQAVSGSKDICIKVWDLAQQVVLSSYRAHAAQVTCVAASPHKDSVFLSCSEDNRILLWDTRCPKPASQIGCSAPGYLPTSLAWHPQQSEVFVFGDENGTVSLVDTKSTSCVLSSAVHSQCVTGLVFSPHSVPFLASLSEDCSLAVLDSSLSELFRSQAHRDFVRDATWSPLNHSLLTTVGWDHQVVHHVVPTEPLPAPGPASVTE
Procedure, shortened: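 Three cofactor conditions are run: SAM-bound, MTA-bound and cofactor-free enzyme. IC50 is read from each; for the SAM and MTA arms it is divided by 1.5 and 13.5 respectively to give Ki.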

PRMT5 [2] = target: T1, PRMT5; assay: PRMT5 IC50 assay in the presence of MTA as cofactor; assay type: biochemical; details: for IC50: PRMT5, MTA as cofactor
Procedure, shortened: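 Three cofactor conditions tested for PRMT5 inhibition: none, MTA and SAM, each giving an IC50. For conversion to Ki, the MTA-condition IC50 is divided by 13.5 and the SAM-condition IC50 by 1.5, and the two Ki values are expressed as a SAM/MTA ratio.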

PRMT5 [3] = target: T1, PRMT5; assay: PRMT5 IC50 assay with no cofactor; assay type: biochemical
Procedure, shortened: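 Enzyme: human PRMT5. Conditions: plus SAM, plus MTA, or cofactor-free. Output: IC50 (μM); Ki via IC50/1.5 (SAM) or IC50/13.5 (MTA).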

[4] = ratio between Ki in the presence of SAM and Ki in the presence of MTA
[5] = ratio between the Ki in the presence of SAM and the Ki in the presence of MTA

SMILES | IC50 (HAP1 MTAP-deleted) [nM] | MTAP Intact/Deleted Ratio (HAP1 MTAP-deleted) | IC50 (HAP1 MTAP-intact) [nM] | IC50 (PRMT5 [1]) [nM] | IC50 (PRMT5 [2]) [nM] | SAM/MTA Ratio (PRMT5 [2]; [4]) | IC50 (PRMT5 [3]; read-out: No Co-factor IC50) [nM] | SAM/MTA Ratio (PRMT5 [2]; [5]) | IC50 (PRMT5 [3]) [nM]
Cc1ncoc1COc1ccc2c(c1)CCN(C[C@@H](O)CNC(=O)c1ccnc(NC3CCN(C(=O)C4CC4)CC3)c1)C2 [Compound 624, (S)-2-((1-(cyclopropanecarbonyl)piperidin-4-yl)amino)-N-(2-hydroxy-3-(6-((4-methyloxazol-5-yl)methoxy)-3,4-dihydroisoquinolin-2(1H)-yl)propyl)isonicotinamide] | < 1000 | A* (an IC50 ratio greater than or equal to 10 fold between the IC50 in the HAP1 MTAP-intact cell line and the HAP1 MTAP-deleted cell line) | 1000 to 10000 | 50 to 500 | < 50 | A (a Ki ratio greater than or equal to 10 fold between the Ki in the presence of SAM and the Ki in the presence of MTA) | 500 to 5000 |  | 
O=C(NC[C@H](O)CN1CCc2c(ccc(OCc3cnco3)c2Cl)C1)c1ccnc(NC2CCCCC2)c1 [Compound 420, (S)—N-(3-(5-chloro-6-(oxazol-5-ylmethoxy)-3N-dihydroisoquinolin-2(1H)-yl)-2-hydroxypropyl)-2-(cyclohexylamino)isonicotinamide] | ≥ 10000 | C* (an IC50 ratio of less than 3 fold between the IC50 in the HAP1 MTAP-intact cell line and the HAP1 MTAP-deleted cell line) | ≥ 10000 | 50 to 500 | 50 to 500 | A (a Ki ratio greater than or equal to 10 fold between the Ki in the presence of SAM and the Ki in the presence of MTA) | 500 to 5000 |  | 
O=C(NC[C@H](O)CN1CCc2c(Cl)c(OCc3cnco3)cc(F)c2C1)c1ccnc(NC2CCC2)c1 [Compound 279, N-[(2S)-3-[5-chloro-8-fluoro-6-(oxazol-5-ylmethoxy)-3,4-dihydro-1H-isoquinolin-2-yl]-2-hydroxy-propyl]-2-(cyclobutylamino)pyridine-4-carboxamide] | 1000 to 10000 | C* (an IC50 ratio of less than 3 fold between the IC50 in the HAP1 MTAP-intact cell line and the HAP1 MTAP-deleted cell line) | ≥ 10000 | 50 to 500 | 50 to 500 | A (a Ki ratio greater than or equal to 10 fold between the Ki in the presence of SAM and the Ki in the presence of MTA) | ≥ 5000 |  | 
Cc1ncoc1COc1ccc2c(c1)CCN(C[C@@H](O)CNC(=O)c1cc(NC3CCC3)nc(N3CCN(C)CC3)c1)C2 [Compound 485, 2-(cyclobutylamino)-N-[(2S)-2-hydroxy-3-{6-[(4-methyl-1,3-oxazol-5-yl)methoxy]-1,2,3,4-tetrahydroisoquinolin-2-yl}propyl]-6-(4-methylpiperazin-1-yl)pyridine-4-carboxamide] | < 1000 | C* (an IC50 ratio of less than 3 fold between the IC50 in the HAP1 MTAP-intact cell line and the HAP1 MTAP-deleted cell line) | < 1000 | 50 to 500 | 50 to 500 |  |  | A (a Ki ratio greater than or equal to 10 fold between the Ki in the presence of SAM and the Ki in the presence of MTA) | 500 to 5000
O=C(NC[C@H](O)CN1CCc2c(ccc(OCc3cnco3)c2Br)C1)c1ccnc(NC2CCCC2)c1 [Compound 404, (S)—N-(3-(5-bromo-6-(oxazol-5-ylmethoxy)-3N-dihydroisoquinolin-2(1H)-yl)-2-hydroxypropyl)-2-(cyclopentylamino)isonicotinamide] | ≥ 10000 | C* (an IC50 ratio of less than 3 fold between the IC50 in the HAP1 MTAP-intact cell line and the HAP1 MTAP-deleted cell line) | ≥ 10000 | 50 to 500 | 50 to 500 | A (a Ki ratio greater than or equal to 10 fold between the Ki in the presence of SAM and the Ki in the presence of MTA) | ≥ 5000 |  | 
O=C(NC[C@H](O)CN1CCc2cc(OCc3cnco3)ccc2C1)c1cc(NC2CCC2)nc(N2CCN(C(=O)C3CC3)CC2)c1 [Compound 378, (S)-2-(cyclobutylamino)-6-(4-(cyclopropanecarbonyl)piperazin-1-yl)-N-(2-hydroxy-3-(6-(oxazol-5-ylmethoxy)-3N-dihydroisoquinolin-2(1H)-yl)propyl)isonicotinamide] | < 1000 | C* (an IC50 ratio of less than 3 fold between the IC50 in the HAP1 MTAP-intact cell line and the HAP1 MTAP-deleted cell line) | < 1000 | 50 to 500 | 50 to 500 | A (a Ki ratio greater than or equal to 10 fold between the Ki in the presence of SAM and the Ki in the presence of MTA) | 500 to 5000 |  | 
Cc1ncoc1COc1ccc2c(c1C)CCN(C[C@@H](O)CNC(=O)c1cc(NC3CCC3)ccn1)C2 [Compound 555, 4-(cyclobutylamino)-N-[(2S)-2-hydroxy-3-{5-methyl-6-[(4-methyl-1,3-oxazol-5-yl)methoxy]-1,2,3,4-tetrahydroisoquinolin-2-yl}propyl]pyridine-2-carboxamide] | 1000 to 10000 | C* (an IC50 ratio of less than 3 fold between the IC50 in the HAP1 MTAP-intact cell line and the HAP1 MTAP-deleted cell line) | ≥ 10000 | 50 to 500 | 50 to 500 |  |  | A (a Ki ratio greater than or equal to 10 fold between the Ki in the presence of SAM and the Ki in the presence of MTA) | ≥ 5000
Cc1ncoc1COc1ccc2c(c1I)CCN(C[C@@H](O)CNC(=O)c1ccnc(NC3CCC3)c1)C2 [Compound 268, 2-(cyclobutylamino)-N-[(2S)-2-hydroxy-3-[5-iodo-6-[(4-methyloxazol-5-yl)methoxy]-3,4-dihydro-1H-isoquinolin-2-yl]propyl]pyridine-4-carboxamide] | ≥ 10000 | C* (an IC50 ratio of less than 3 fold between the IC50 in the HAP1 MTAP-intact cell line and the HAP1 MTAP-deleted cell line) | ≥ 10000 | 500 to 5000 | 500 to 5000 |  | ≥ 5000 |  | 
CC(=O)N1CC(Nc2cc(C(=O)NC[C@H](O)CN3CCc4c(ccc(OCc5ocnc5C)c4C)C3)nc(C(C)(C)C)n2)C1 [Compound 569, (S)-6-((1-acetylazetidin-3-yl)amino)-2-(tert-butyl)-N-(2-hydroxy-3-(5-methyl-6-((4-methyloxazol-5-yl)methoxy)-3,4-dihydroisoquinolin-2(1H)-yl)propyl)pyrimidine-4-carboxamide] | 1000 to 10000 | B* (an IC50 ratio greater than or equal to 3 fold but lower than 10 fold between the IC50 in the HAP1 MTAP-intact cell line and the HAP1 MTAP-deleted cell line) | ≥ 10000 | 50 to 500 | 50 to 500 |  |  | A (a Ki ratio greater than or equal to 10 fold between the Ki in the presence of SAM and the Ki in the presence of MTA) | ≥ 5000
CC(=O)N1CCC(Nc2cc(C(=O)NC[C@H](O)CN3CCc4cc(OCc5cnco5)ccc4C3)ccn2)CC1 [Compound 471, 2-[(1-acetyl-4-piperidyl)amino]-N-[(2S)-2-hydroxy-3-[6-(oxazol-5-ylmethoxy)-3,4-dihydro-1H-isoquinolin-2-yl]propyl]pyridine-4-carboxamide] | 1000 to 10000 | B* (an IC50 ratio greater than or equal to 3 fold but lower than 10 fold between the IC50 in the HAP1 MTAP-intact cell line and the HAP1 MTAP-deleted cell line) | 1000 to 10000 | 50 to 500 | 50 to 500 |  |  | A (a Ki ratio greater than or equal to 10 fold between the Ki in the presence of SAM and the Ki in the presence of MTA) | 500 to 5000
Cc1c(OCc2cnco2)ccc2c1CCN(C[C@@H](O)CNC(=O)c1ccnc(NC3CCC3C3CCC3)c1)C2 (stereo partly drawn) [Compound 476, 2-([1,1′-bi(cyclobutan)]-2-ylamino)-N—((S)-2-hydroxy-3-(5-methyl-6-(oxazol-5-ylmethoxy)-3,4-dihydroisoquinolin-2(1H)-yl)propyl)isonicotinamide] | ≥ 10000 | C* (an IC50 ratio of less than 3 fold between the IC50 in the HAP1 MTAP-intact cell line and the HAP1 MTAP-deleted cell line) | ≥ 10000 | 500 to 5000 | 50 to 500 |  |  | A (a Ki ratio greater than or equal to 10 fold between the Ki in the presence of SAM and the Ki in the presence of MTA) | ≥ 5000
CCN(C)c1cc(C(=O)NC[C@H](O)CN2CCc3c(ccc(OCc4ocnc4C)c3C)C2)cc(NC2CCC2)n1 [Compound 478, 2-(cyclobutylamino)-6-[ethyl(methyl)amino]-N-[(2S)-2-hydroxy-3-{5-methyl-6-[(4-methyl-1,3-oxazol-5-yl)methoxy]-1,2,3,4-tetrahydroisoquinolin-2-yl}propyl]pyridine-4-carboxamide] | ≥ 10000 | C* (an IC50 ratio of less than 3 fold between the IC50 in the HAP1 MTAP-intact cell line and the HAP1 MTAP-deleted cell line) | ≥ 10000 | 500 to 5000 | 50 to 500 |  |  | A (a Ki ratio greater than or equal to 10 fold between the Ki in the presence of SAM and the Ki in the presence of MTA) | ≥ 5000

From US11986471B2, “Compounds and methods of use” (Tango Therapeutics, Inc., priority 2018, dated 2024)
